Results from patent US20110190253A1, “METHOD FOR TREATING TUBERCULOSIS” (priority 2008, published 2011).

Tested on: extensively drug-resistant (XDR) clinical strains of M. tuberculosis
Assay: microbe, parasite or virus in culture
Format: cell-based
Conditions: for variability of MIC values among strains: thirteen XDR clinical isolates, clavulanate 2.5 μg ml^−1, data not shown

Row | Structure (SMILES) | variability of MIC values among strains | MIC (Mycobacterium tuberculosis, read-out: MIC value) [µg/mL]
1 | CC1(C)S[C@@H]2[C@H](NC(=O)[C@H](N)c3ccccc3)C(=O)N2[C@H]1C(=O)O [ampicillin] | substantial variability | 
2 | CC(=O)OCC1=C(C(=O)O)N2C(=O)[C@@H](NC(=O)Cc3cccs3)[C@H]2SC1 [cephalothin] | substantial variability | 
3 | C[C@@H](O)[C@H]1C(=O)N2C(C(=O)O)=C(S[C@@H]3CN[C@H](C(=O)N(C)C)C3)[C@H](C)[C@H]12 [meropenem] |  | ≤ 1
